# Measurements reported in patent US20190223479A1, “SUGAR-DIPEPTIDE CONJUGATES AS FLAVOR MOLECULES” (NESTEC S.A., priority 2016, published 2019).
# “Also recorded” adds a separate entry of the source.
# Tests used:
# [1] = Sensory evaluation by 12 panelists of chicken soup spiked with the compounds; conditions: versus un-spiked reference soup; for Flavor property in chicken soup (2 g/l): compound added at 2 g/l
# Description: Sample preparation: Chicken soups were prepared by dissolving 6 g chicken base powder (detailed recipe shown in Table 1), 1 g monosodium glutamate and 1 g of sodium chloride in 500 mL hot water. The compounds were separately added at 2 g/l and 0.25 g/l.
# Sensory protocol: The sensory evaluation was carried out by 12 panelists, previously screened for their sensory abilities. The panelists assessed a maximum of 6 samples per session. They had Vittel water and crackers as mouth cleansers. In all the cases, the panelists were instructed to evaluate the samples on the following attributes: overall flavor persistency, umami, meaty, grilled/popcorn, boiled chicken, sweet, bitter, salty. The samples were coded with random 3-digit numbers according to a balanced presentation design, heated at approximately 65° C. and then presented in 40 ml brown plastic containers and under red light to minimize appearance bias (the serving was approximately 25 ml per sample).
# [2] = Sensory comparison by 6 panelists (nose-clips) of soup with sugar conjugate vs equimolar glucose and lysine; conditions: 2 g/L (6.49 mmol/L) in soup base versus same molar concentrations of glucose and lysine
# Description: A first soup was prepared by adding 2 g/L (6.49 mmol/L) 1-deoxy-D-fructosyl-N-Lysine (GluAmadori-Lys2) in the soup base as described above. A second soup was prepared by adding same corresponding molar concentrations of glucose and lysine. The solutions were then evaluated by 6 panelists following the same procedure than described above with using nose-clips.
# [3] = Tomato soup seasoning compositions with added compound; conditions: 0.5 g/L or 2.5 g/L, versus reference soups without the compounds
# Description: Tomato soups can be prepared by dissolving 6 g tomato base powder as can be obtained in the commerce in 500 mL hot water. GluAmadori-Lys1 or GluAmadori-Lys2 can then be added at a concentration of 0.5 g/L or 2.5 g/L to the soups in order to improve their taste and flavor profile. […] For example, a similar tomato soup can now be prepared which has the same saltiness as the reference tomato soup but comprising less sodium chloride.
# [4] = described by T. Sonntag et al.; cited from earlier work
Molecule,Flavor property in chicken soup (2 g/l) [1],further results
1-deoxy-D-fructosyl-N-Lysine [GluAmadori-Lys2],"enhanced saltiness, umaminess and overall flavor persistency",Sensory differences [2]: more salty and umami; Taste and flavor profile of tomato soup [3]: more pronounced umami taste as well as being perceived as more salty
NCCCC[C@H](N)C(=O)O [L-lysine],,Taste quality [4]: bitter tasting compound
"NCCCC[C@H](NCC1(O)OCC(O)C1O)C(=O)O (stereo partly drawn) [RibAmadori-Lys1, ((2,3,4-trihydroxytetrahydrofuran-2-yl)methyl)lysine]","baked and roasted flavors were significantly increased; also recorded: baked, roasted flavor",
"N[C@@H](CCCCNCC1(O)OCC(O)C1O)C(=O)O (stereo partly drawn) [RibAmadori-Lys2, N6-((2,3,4-trihydroxytetrahydrofuran-2-yl)methyl)lysine]",enhanced roasted flavor,
"NCCCC[C@H](NCC1(O)OCC(O)C1O)C(=O)O (stereo partly drawn) [XylAmadori-Lys1, ((2,3,4-trihydroxytetrahydrofuran-2-yl)methyl)lysine]","baked and roasted flavors were significantly increased; also recorded: baked, roasted flavor",Flavor property in chicken soup (0.25 g/l) ([1]; compound added at 0.25 g/l): baked and roasted flavors were significantly increased
"N[C@@H](CCCCNCC1(O)OCC(O)C1O)C(=O)O (stereo partly drawn) [XylAmadori-Lys2, N6-((2,3,4-trihydroxytetrahydrofuran-2-yl)methyl)lysine]",enhanced meat flavor,
